From EP0542497A1, “Heterocyclic compounds” (THE WELLCOME FOUNDATION LIMITED, priority 1991, dated 1993)

System: Mycobacterium tuberculosis
Assay: In vitro activity vs Mycobacterium tuberculosis, proportion method
Type: cell-based
Details: ten(10) clinical isolates of Myco. tuberculosis (including several multiply-resistant strains), read-out: average MIC

## CCC(CC)n1c(C)cc2c3c(N)nc(N)nc3ccc21 [Compound 2, 1,3-Diamino-7-(1-ethylpropyl)-8-methyl-7H-pyrrolo(3,2-f)quinazoline]
  M I C: 3.2 µg/mL
